Reference: article PMC10819888, “Benzimidazole-Based Derivatives as Apoptotic Antiproliferative Agents: Design, Synthesis, Docking, and Mechanistic Studies” (Molecules, 2024)

Columns and labels:
Assay type in all cases: cell-based, human
SF-295 = experiment: NCI-60 five-dose assay; details: SF-295 (CNS Cancer), 48 h
CNS Cancer subpanel = experiment: NCI-60 five-dose assay, subpanel
SW-620 = experiment: NCI-60 five-dose assay; details: SW-620 (Colon Cancer), 48 h
SN12C = experiment: NCI-60 five-dose assay; details: SN12C (Renal Cancer), 48 h
HCC-2998 = experiment: NCI-60 five-dose assay; details: HCC-2998 (Colon Cancer), 48 h
CAKI-1 = experiment: NCI-60 five-dose assay; details: CAKI-1 (Renal Cancer), 48 h
NCI-H226 = experiment: NCI-60 five-dose assay; details: NCI-H226 (Non-Small Cell Lung Cancer), 48 h
Leukemia subpanel = experiment: NCI-60 five-dose assay, subpanel
DU-145 = experiment: NCI-60 five-dose assay; details: DU-145 (Prostate Cancer), 48 h
NCI-H460 = experiment: NCI-60 five-dose assay; details: NCI-H460 (Non-Small Cell Lung Cancer), 48 h
HOP-92 = experiment: NCI-60 five-dose assay; details: HOP-92 (Non-Small Cell Lung Cancer), 48 h
MDA-MB-468 = experiment: NCI-60 five-dose assay; details: MDA-MB-468 (Breast Cancer), 48 h
RPMI-8226 = experiment: NCI-60 five-dose assay; details: RPMI-8226 (Leukemia), 48 h
SNB-19 = experiment: NCI-60 five-dose assay; details: SNB-19 (CNS Cancer), 48 h
OVCAR-4 = experiment: NCI-60 five-dose assay; details: OVCAR-4 (Ovarian Cancer), 48 h
HCT-116 = experiment: NCI-60 five-dose assay; details: HCT-116 (Colon Cancer), 48 h
SK-OV-3 = experiment: NCI-60 five-dose assay; details: SK-OV-3 (Ovarian Cancer), 48 h
MOLT-4 = experiment: NCI-60 five-dose assay; details: MOLT-4 (Leukemia), 48 h
HS 578T = experiment: NCI-60 five-dose assay; details: HS 578T (Breast Cancer), 48 h
SF-268 = experiment: NCI-60 five-dose assay; details: SF-268 (CNS Cancer), 48 h
K-562 = experiment: NCI-60 five-dose assay; details: K-562 (Leukemia), 48 h
786-0 = experiment: NCI-60 five-dose assay; details: 786-0 (Renal Cancer), 48 h
NCI-H23 = experiment: NCI-60 five-dose assay; details: NCI-H23 (Non-Small Cell Lung Cancer), 48 h
OVCAR-8 = experiment: NCI-60 five-dose assay; details: OVCAR-8 (Ovarian Cancer), 48 h
UACC-257 = experiment: NCI-60 five-dose assay; details: UACC-257 (Melanoma), 48 h
[1] = Homo sapiens, read-out: GI50 Conc. per Cell Line
[2] = Homo sapiens, read-out: LC50 (the source's name)

## O=C(NN=Cc1ccc(Cl)cc1)c1ccc2[nH]c(-c3ccc(Cl)cc3)nc2c1 [Compound 4e, N′-(4-Chlorobenzylidene)-2-(4-chlorophenyl)-1H-benzimidazole-5-carbohydrazide]
SF-295; [1]
  GI50: 1.86 µM
SF-295; [2]
  CC50: 6.56 µM
SF-295
  TGI: 3.50 µM
CNS Cancer subpanel; CNS Cancer subpanel
  GI50 Selectivity Ratio (MID a/MID b): 0.92
CNS Cancer subpanel; Homo sapiens, CNS Cancer, average sensitivity of all subpanel cell lines, read-out: GI50 Subpanel MID b
  GI50: 1.94 µM
SW-620; Homo sapiens
  LC50: 7.43 µM
SW-620; [1]
  GI50: 1.83 µM
SW-620
  TGI: 3.69 µM
SN12C; [1]
  GI50: 1.96 µM
SN12C; [2]
  CC50: 9.26 µM
SN12C
  TGI: 4.26 µM
HCC-2998
  TGI: 3.44 µM
HCC-2998; [1]
  GI50: 1.82 µM
HCC-2998; [2]
  CC50: 6.5 µM
CAKI-1
  TGI: 3.29 µM
CAKI-1; [1]
  GI50: 1.7 µM
CAKI-1; [2]
  CC50: 6.37 µM
NCI-H226; [1]
  GI50: 1.77 µM
NCI-H226; [2]
  CC50: 6.86 µM
NCI-H226
  TGI: 3.48 µM
Leukemia subpanel; Homo sapiens, Leukemia, average sensitivity of all subpanel cell lines, read-out: GI50 Subpanel MID b
  GI50: 1.33 µM
Leukemia subpanel; Leukemia subpanel
  GI50 Selectivity Ratio (MID a/MID b): 1.35
DU-145
  TGI: 3.44 µM
DU-145; [1]
  GI50: 1.76 µM
DU-145; [2]
  CC50: 6.7 µM
NCI-H460; Homo sapiens
  LC50: 6.3 µM
NCI-H460; [1]
  GI50: 1.56 µM
NCI-H460
  TGI: 3.13 µM
HOP-92
  TGI: 3.53 µM
HOP-92; Homo sapiens
  LC50 (50% lethal concentration): 7.47 µM
HOP-92; [1]
  GI50: 1.67 µM
MDA-MB-468; Homo sapiens
  LC50 (concentration killing 50% of cells): 6.36 µM
MDA-MB-468; [1]
  GI50: 1.64 µM
MDA-MB-468
  TGI: 3.23 µM
RPMI-8226; [1]
  GI50: 1.16 µM
RPMI-8226; [2]
  CC50: 16.5 µM
RPMI-8226
  TGI: 3.52 µM
SNB-19; [1]
  GI50: 2.34 µM
SNB-19; [2]
  CC50: 13.3 µM
SNB-19
  TGI: 5.06 µM
OVCAR-4; [1]
  GI50: 1.74 µM
OVCAR-4; [2]
  CC50: 6.23 µM
OVCAR-4
  TGI: 3.29 µM
HCT-116
  TGI: 3.51 µM
HCT-116; [1]
  GI50: 1.45 µM
HCT-116; [2]
  CC50: 8.52 µM
SK-OV-3; [1]
  GI50: 1.79 µM
SK-OV-3; [2]
  CC50: 11 µM
SK-OV-3
  TGI: 4.31 µM
MOLT-4; [1]
  GI50: 1.55 µM
MOLT-4; [2]
  CC50: 28.2 µM
MOLT-4
  TGI: 4.81 µM
HS 578T
  TGI: 5.27 µM
HS 578T; [1]
  GI50: 2.28 µM
HS 578T; [2]
  CC50: 63.2 µM
SF-268; [1]
  GI50: 2.08 µM
SF-268; [2]
  CC50: 9.09 µM
SF-268
  TGI: 4.35 µM
K-562; Homo sapiens, K562, read-out: GI50 Conc. per Cell Line
  GI50: 0.969 µM
K-562; Homo sapiens, K562, read-out: LC50 (the source's name)
  CC50: 12.3 µM
K-562
  TGI: 3.23 µM
786-0
  TGI: 3.48 µM
786-0; [1]
  GI50: 1.79 µM
786-0; [2]
  CC50: 6.76 µM
NCI-H23; [1]
  GI50: 1.93 µM
NCI-H23; [2]
  CC50: 10.8 µM
NCI-H23
  TGI: 4.43 µM
OVCAR-8; [1]
  GI50: 2.11 µM
OVCAR-8; [2]
  CC50: 16.5 µM
OVCAR-8
  TGI: 4.74 µM
UACC-257; [1]
  GI50: 2.14 µM
UACC-257; [2]
  CC50: 11.6 µM
UACC-257
  TGI: 4.72 µM
